We go through 53 compounds from US5834487A, “Inhibition of 26S and 20S proteasome by indanones” (CV Therapeutics, priority 1996, dated 1998).

A value given as a limit tells only on which side of the number the result lay.

For this test, the target named is T1, 20S catalytic subunit of the proteasome (multicatalytic proteinase complex) (Bos taurus, UniProt Q32KL2).
T1 construct: was purified to homogeneity from bovine brain according to published methods; from tissue; host or cells: bovine brain
Briefly: 20S proteasome chymotryptic activity, fluorogenic peptide cleavage. Particulars: 50 μM succinyl-leu-leu-val-tyr-7-amino-4-methyl coumarin, 15 minutes at 37° C, pH7.5. The format is biochemical, bovine. How it is done:
Compounds of this invention prepared according to the method of Example 1 were tested as follows. The 20S catalytic subunit of the proteasome (also known as the multicatalytic proteinase complex) was purified to homogeneity from bovine brain according to published methods (Wilk S. and Orlowski, M, 40 842 J. Neurochem (1983)). The chymotryptic activity of the complex is measured by the increase in fluorescence following cleavage of the substrate peptide succinyl-leucine-leucine-valine-tyrosine-7-amino-4-methyl coumarin. The standard in vitro assay consists of 2 μg 20S proteasome, 0.1-100 μg/ml proteasome inhibitor in 200 μl 50 mM HEPES, containing 0.1% sodium dodecyl sulphate, pH7.5. The proteolytic reaction is initiated by the addition of 50 μM fluorogenic peptide substrate and allowed to progress for 15 minutes at 37° C. The reaction is terminated by the addition of 100 μl of 100 mM acetate buffer, pH4.0. The rate of proteolysis is directly proportional to the amount of liberated aminomethylcoumarin which is measured by fluorescent spectroscopy (EX 370 nm, EM 430 nm).
Compound `COc1ccc2c(c1)C(CC(=O)NC(CC(C)C)C(=O)NC(CC(C)C)C(=O)NCc1ccncc1)CC2=O` (mixture of isomers) [Compound 192] had an IC50 of 10 µg/mL.
As to `COc1ccc2c(c1)C(CC(=O)NC(CC(C)C)C(=O)NC(CC(C)C)C(=O)N(C)Cc1ccccc1)CC2=O` (mixture of isomers) [Compound 180], the half-maximal inhibitory concentration (IC50) was more than 10 µg/mL.
For `COc1ccc2c(c1)C(CC(=O)NC(CC1CCCCC1)C(N)=O)CC2=O` (mixture of isomers) [Compound 29] the value was more than 10 µg/mL; for `COc1ccc2c(c1)C(CC(=O)NC(CC(C)C)C(=O)NC(CC(C)C)C(N)=O)CC2=O` (mixture of isomers) [Compound 7], more than 10 µg/mL; for `COc1ccc2c(c1)C(CC(=O)N[C@@H](CC(C)C)C(=O)N[C@H](CC1CCCCC1)C(=O)NCC(N)=O)CC2=O` (some centres unmarked) [Compound 89], more than 10 µg/mL.
For `COc1ccc2c(c1)C(CC(=O)N1CCc3ccccc31)CC2=O` (racemic) [Compound 160], the IC50 was more than 10 µg/mL.
Take `COc1ccc2c(c1)C(CC(=O)NC(C(=O)NC(CC(C)C)C(N)=O)c1ccccc1)CC2=O` (mixture of isomers) [Compound 37]: the IC50 was more than 10 µg/mL.
The figure for `COc1ccc2c(c1)C(CC(=O)NC(CC(C)C)C(=O)NC(C)(C)C(N)=O)CC2=O` (mixture of isomers) [Compound 11] is more than 10 µg/mL; for `COc1ccc2c(c1)C(CC(=O)Nc1cccc(I)c1)CC2=O` (centres unmarked) [Compound 82] it is more than 10 µg/mL; for `COc1ccc2c(c1)C(CC(=O)NC(CC(=O)O)C(=O)NC(CC(C)C)C(N)=O)CC2=O` (mixture of isomers) [Compound 94] it is more than 10 µg/mL.
For `COc1ccc2c(c1)C(CC(=O)Nc1ccc(Cl)c(Cl)c1)CC2=O` (racemic) [Compound 157], the IC50 was more than 10 µg/mL.
Compound `COc1ccc2c(c1)C(CC(=O)NC(CC(C)C)C(=O)NC(CC(C)C)C(=O)NCCCc1ccccc1)CC2=O` (mixture of isomers) [Compound 186] gave an IC50 of more than 10 µg/mL.
For `COc1ccc2c(c1)C(CC(=O)NC(CC(C)C)C(=O)NC(CC(C)C)C(=O)NCC(N)=O)CC2=O` (mixture of isomers) [Compound 19] the value was more than 10 µg/mL; for `COc1ccc2c(c1)C(CC(=O)NC(CO)C(O)c1ccccc1)CC2=O` (mixture of isomers) [Compound 165], more than 50 µg/mL; for `COc1ccc2c(c1)C(CC(=O)NC(CC(C)C)C(=O)NC(C)(C)C(N)=O)CC2=O` (mixture of isomers) [Compound 28], more than 10 µg/mL.
In the case of `COc1ccc2c(c1)C(CC(=O)NC(CC(C)C)C(=O)NC(CO)C(N)=O)CC2=O` (mixture of isomers) [Compound 141], the IC50 is more than 10 µg/mL.
Take `CCC[C@@H](NC(=O)[C@H](CC(C)C)NC(=O)CC1CC(=O)c2ccc(OC)cc21)C(=O)NCC(N)=O` (some centres unmarked) [Compound 87]: the IC50 is more than 10 µg/mL.
For the compound `COc1ccc2c(c1)C(CC(=O)NC(CC(C)C)C(=O)NC(Cc1c[nH]c3ccccc13)C(N)=O)CC2=O` (mixture of isomers) [Compound 136], the IC50 was more than 10 µg/mL.
In turn, `COc1ccc2c(c1)C(CC(=O)NC(CC(C)C)C(=O)NC(CC(C)C)C(=O)N1CCc3ccccc3C1)CC2=O` (mixture of isomers) [Compound 191] gave an IC50 of more than 10 µg/mL.
For the compound `COc1ccc2c(c1)C(CC(=O)NC(CC(C)C)C(N)=O)CC2=O` (mixture of isomers) [Compound 1], the 50% inhibitory concentration (IC50) amounted to 5 µg/mL.
Regarding `COc1ccc2c(c1)C(CC(=O)NCCc1ccccc1)CC2=O` (centres unmarked) [Compound 65], the IC50 is more than 10 µg/mL.
For `COc1ccc2c(c1)C(CC(=O)NC(CC(C)C)C(=O)NC(CC(C)C)C(=O)NC(Cc1ccccc1)C(N)=O)CC2=O` (mixture of isomers) [Compound 127] the value was more than 10 µg/mL.
Regarding `COc1ccc2c(c1)C(CC(=O)NC(CC(C)C)C(=O)NC(CC(C)C)C(N)=O)CC2=O` (mixture of isomers) [Compound 6], the IC50 was more than 10 µg/mL.
For `COc1ccc2c(c1)C(CC(=O)NC(CC(C)C)C(=O)NC(CC(N)=O)C(N)=O)CC2=O` (mixture of isomers) [Compound 131] the value was more than 10 µg/mL; for `COc1ccc2c(c1)C(CC(=O)NC(CC(C)C)C(=O)NC(Cc1c[nH]cn1)C(N)=O)CC2=O` (mixture of isomers) [Compound 4], more than 10 µg/mL.
Compound `COc1ccc2c(c1)C(CC(=O)NC(CC(C)C)C(=O)NCCC(C)C)CC2=O` (mixture of isomers) [Compound 200] gave an IC50 of more than 10 µg/mL.
In turn, `COc1ccc2c(c1)C(CC(=O)N1Cc3ccccc3CC1C(=O)NC(CC(C)C)C(N)=O)CC2=O` (mixture of isomers) [Compound 60] came in with an IC50 of more than 10 µg/mL.
`COc1ccc2c(c1)C(CC(=O)NC(CC(C)C)C(=O)NC(CC(C)C)C(=O)N1CCCC1)CC2=O` (mixture of isomers) [Compound 176] gave an IC50 of more than 10 µg/mL.
For the compound `COc1ccc2c(c1)C(CC(=O)NCCO)CC2=O` (centres unmarked) [Compound 84], the IC50 was more than 10 µg/mL.
`CCCCC(NC(=O)CC1CC(=O)c2ccc(OC)cc21)C(N)=O` (mixture of isomers) [Compound 9] came in with an IC50 of more than 10 µg/mL.
The figure for `COc1ccc2c(c1)C(CC(=O)NC(CC(C)C)C(=O)NC(CC1CCCCC1)C(N)=O)CC2=O` (mixture of isomers) [Compound 132] is more than 10 µg/mL; for `COc1ccc2c(c1)C(CC(=O)NCCc1ccc(OC)c(OC)c1)CC2=O` (centres unmarked) [Compound 72] it is more than 10 µg/mL.
With `COc1ccc2c(c1)C(CC(=O)N1CCCC1CO)CC2=O` (mixture of isomers) [Compound 164], the IC50 is more than 50 µg/mL.
On to `CCCCC(NC(=O)CC1CC(=O)c2ccc(OC)cc21)C(=O)NC(CC(C)C)C(N)=O` (mixture of isomers) [Compound 22], for which the IC50 is more than 10 µg/mL.
Consider `COc1ccc2c(c1)C(CC(=O)NC1CCc3ccccc31)CC2=O` (centres unmarked) [Compound 83], for which the IC50 was more than 10 µg/mL.
Compound `COc1ccc2c(c1)C(CC(=O)N(C)C)CC2=O` (racemic) [Compound 167] displayed an IC50 of more than 50 µg/mL.
`COc1ccc2c(c1)C(CC(=O)NC(CC(C)C)C(=O)NC(C)C(N)=O)CC2=O` (mixture of isomers) [Compound 53] gave an IC50 of more than 10 µg/mL.
The compound `COc1ccc2c(c1)C(CC(=O)Nc1ccccc1)CC2=O` (racemic) [Compound 168] displayed an IC50 of more than 50 µg/mL.
Consider `COc1ccc2c(c1)C(CC(=O)NCc1ccc3c(c1)OCO3)CC2=O` (centres unmarked) [Compound 80], for which the IC50 was more than 10 µg/mL.
Turning to `COc1ccc2c(c1)C(CC(=O)NC(CC(C)C)C(=O)NC(CC(C)C)C(N)=O)CC2=O` (mixture of isomers) [Compound 5], the IC50 is more than 10 µg/mL.
Compound `COc1ccc2c(c1)C(CC(=O)NC(C(=O)NC(CC(C)C)C(=O)NCC(N)=O)c1ccccc1)CC2=O` (mixture of isomers) [Compound 48] gave an IC50 of more than 10 µg/mL.
`COc1ccc2c(c1)C(CC(=O)NC(CC(C)C)C(=O)NC(CC(C)C)C(=O)NC(C(N)=O)C(C)C)CC2=O` (mixture of isomers) [Compound 124] registered an IC50 of more than 10 µg/mL.
`COc1ccc2c(c1)C(CC(=O)NC(CC(C)C)C(=O)NC(CC(C)C)C(=O)NCC(N)=O)CC2=O` (mixture of isomers) [Compound 21] yielded an IC50 of 0.1 µg/mL.
As to `COc1ccc2c(c1)C(CC(=O)NC(CC1CCCCC1)C(=O)NC(CC(C)C)C(N)=O)CC2=O` (mixture of isomers) [Compound 13], the IC50 was more than 10 µg/mL.
Regarding `COc1ccc2c(c1)C(CC(=O)NC(CC(N)=O)C(=O)NC(CC(C)C)C(N)=O)CC2=O` (mixture of isomers) [Compound 96], the IC50 is more than 10 µg/mL.
Take `COc1ccc2c(c1)C(CC(=O)N1Cc3ccccc3CC1C(=O)NC(CC(C)C)C(N)=O)CC2=O` (mixture of isomers) [Compound 26]: the IC50 was more than 10 µg/mL.
In turn, `COc1ccc2c(c1)C(CC(=O)NC(Cc1c[nH]cn1)C(=O)NC(CC(C)C)C(N)=O)CC2=O` (mixture of isomers) [Compound 99] displayed an IC50 of more than 10 µg/mL.
Regarding `COc1ccc2c(c1)C(CC(=O)Nc1c(C)cccc1[N+](=O)[O-])CC2=O` (racemic) [Compound 153], the IC50 was more than 10 µg/mL.
`CCCC(NC(=O)CC1CC(=O)c2ccc(OC)cc21)C(=O)NC(CC(C)C)C(N)=O` (mixture of isomers) [Compound 57] registered an IC50 of more than 10 µg/mL.
Consider `COc1ccc2c(c1)C(CC(=O)NCc1ccccc1)CC2=O` (centres unmarked) [Compound 38], for which the IC50 is more than 10 µg/mL.
The figure for `COc1ccc2c(c1)C(CC(=O)NC(CC(N)=O)C(=O)NC(CC(C)C)C(N)=O)CC2=O` (mixture of isomers) [Compound 95] is 10 µg/mL; for `COc1ccc2c(c1)C(CC(=O)NC(CC(C)C)C(=O)NCc1ccccc1)CC2=O` (mixture of isomers) [Compound 198] it is more than 10 µg/mL; for `COc1ccc2c(c1)C(CC(=O)Nc1nc(C)cc(Cl)n1)CC2=O` (racemic) [Compound 155] it is more than 10 µg/mL.

What is called IC50 is the concentration needed to halve the response being measured.
